Experimental data as given in PubChem BioAssay (NCI).
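How tested: cells in 96-well plates exposed to compound for 48 hours at five concentrations. GI50 = concentration required for 50% inhibition of growth. The concentration for full growth arrest is given as TGI.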

What was measured:
Assay in all cases: growth of human tumour cells (NCI), 48 h
786-0 renal = test system: 786-0 renal
A498 renal = test system: A498 renal
A549 NSCLC = test system: A549 NSCLC
ACHN renal = test system: ACHN renal
BT-549 breast = test system: BT-549 breast
CAKI-1 renal = test system: CAKI-1 renal
CCRF-CEM leukemia = test system: CCRF-CEM leukemia
COLO 205 colon = test system: COLO 205 colon
DU-145 prostate = test system: DU-145 prostate
HCC-2998 colon = test system: HCC-2998 colon
HCT-116 colon = test system: HCT-116 colon
HCT-15 colon = test system: HCT-15 colon
HL-60(TB) leukemia = test system: HL-60(TB) leukemia
HOP-62 NSCLC = test system: HOP-62 NSCLC
HOP-92 NSCLC = test system: HOP-92 NSCLC
HS 578T breast = test system: HS 578T breast
IGROV1 ovarian = test system: IGROV1 ovarian
KM12 colon = test system: KM12 colon
LOX IMVI melanoma = test system: LOX IMVI melanoma
MCF7 breast = test system: MCF7 breast
MDA-MB-231 breast = test system: MDA-MB-231 breast
MOLT-4 leukemia = test system: MOLT-4 leukemia
NCI-H226 lung = test system: NCI-H226 lung
NCI-H460 lung = test system: NCI-H460 lung
NCI-H522 lung = test system: NCI-H522 lung
NCI/ADR-RES ovarian = test system: NCI/ADR-RES ovarian
OVCAR-3 ovarian = test system: OVCAR-3 ovarian
OVCAR-4 ovarian = test system: OVCAR-4 ovarian
OVCAR-8 ovarian = test system: OVCAR-8 ovarian
PC-3 prostate = test system: PC-3 prostate
RPMI-8226 leukemia = test system: RPMI-8226 leukemia
RXF 393 renal = test system: RXF 393 renal
SF-268 CNS = test system: SF-268 CNS
SF-295 CNS = test system: SF-295 CNS
SF-539 CNS = test system: SF-539 CNS
SK-MEL-2 melanoma = test system: SK-MEL-2 melanoma
SK-MEL-28 melanoma = test system: SK-MEL-28 melanoma
SK-MEL-5 melanoma = test system: SK-MEL-5 melanoma
SK-OV-3 ovarian = test system: SK-OV-3 ovarian
SN12C renal = test system: SN12C renal
SNB-19 CNS = test system: SNB-19 CNS
SNB-75 CNS = test system: SNB-75 CNS
SR leukemia = test system: SR leukemia
SW-620 colon = test system: SW-620 colon
T-47D breast = test system: T-47D breast
TK-10 renal = test system: TK-10 renal
U251 CNS = test system: U251 CNS
UACC-257 melanoma = test system: UACC-257 melanoma
UACC-62 melanoma = test system: UACC-62 melanoma
UO-31 renal = test system: UO-31 renal

## CCC1CCc2nc3sc(C(=O)Nc4ccccc4C)c(N)c3cc2C1 (stereo not given)
786-0 renal
  GI50: 0.371 µM
  TGI: > 100 µM
A498 renal
  GI50: 0.313 µM
  TGI: > 100 µM
A549 NSCLC
  GI50: 0.616 µM
  TGI: > 100 µM
ACHN renal
  GI50: 0.835 µM
  TGI: > 100 µM
BT-549 breast
  GI50: 0.558 µM
  TGI: > 100 µM
CAKI-1 renal
  GI50: 0.451 µM
  TGI: > 100 µM
CCRF-CEM leukemia
  GI50: 0.331 µM
  TGI: > 100 µM
COLO 205 colon
  GI50: 0.451 µM
  TGI: > 100 µM
DU-145 prostate
  GI50: 0.485 µM
  TGI: > 100 µM
HCC-2998 colon
  GI50: 4.42 µM
  TGI: > 100 µM
HCT-116 colon
  GI50: 0.348 µM
  TGI: > 100 µM
HCT-15 colon
  GI50: 0.339 µM
  TGI: > 100 µM
HL-60(TB) leukemia
  GI50: 0.214 µM
  TGI: 0.617 µM
HOP-62 NSCLC
  GI50: 0.674 µM
  TGI: > 100 µM
HOP-92 NSCLC
  GI50: 0.637 µM
  TGI: > 100 µM
HS 578T breast
  GI50: 0.514 µM
  TGI: > 100 µM
IGROV1 ovarian
  GI50: > 100 µM
  TGI: > 100 µM
KM12 colon
  GI50: 0.502 µM
  TGI: > 100 µM
LOX IMVI melanoma
  GI50: 0.775 µM
  TGI: > 100 µM
MCF7 breast
  GI50: 0.287 µM
  TGI: > 100 µM
MDA-MB-231 breast
  GI50: > 100 µM
  TGI: > 100 µM
MOLT-4 leukemia
  GI50: 0.661 µM
  TGI: > 100 µM
NCI-H226 lung
  GI50: > 100 µM
  TGI: > 100 µM
NCI-H460 lung
  GI50: 0.627 µM
  TGI: > 100 µM
NCI-H522 lung
  GI50: 0.775 µM
  TGI: > 100 µM
NCI/ADR-RES ovarian
  GI50: 0.785 µM
  TGI: > 100 µM
OVCAR-3 ovarian
  GI50: 0.351 µM
  TGI: > 100 µM
OVCAR-4 ovarian
  GI50: 0.694 µM
  TGI: > 100 µM
OVCAR-8 ovarian
  GI50: > 100 µM
  TGI: > 100 µM
PC-3 prostate
  GI50: 0.622 µM
  TGI: > 100 µM
RPMI-8226 leukemia
  GI50: 0.329 µM
  TGI: > 100 µM
RXF 393 renal
  GI50: 0.316 µM
  TGI: 40.7 µM
SF-268 CNS
  GI50: 0.706 µM
  TGI: > 100 µM
SF-295 CNS
  GI50: 0.354 µM
  TGI: > 100 µM
SF-539 CNS
  GI50: 0.398 µM
  TGI: > 100 µM
SK-MEL-2 melanoma
  GI50: 0.46 µM
  TGI: > 100 µM
SK-MEL-28 melanoma
  GI50: 0.623 µM
  TGI: > 100 µM
SK-MEL-5 melanoma
  GI50: 0.301 µM
  TGI: > 100 µM
SK-OV-3 ovarian
  GI50: 0.855 µM
  TGI: > 100 µM
SN12C renal
  GI50: 8.37 µM
  TGI: > 100 µM
SNB-19 CNS
  GI50: 0.911 µM
  TGI: > 100 µM
SNB-75 CNS
  GI50: 0.312 µM
  TGI: > 100 µM
SR leukemia
  GI50: 0.196 µM
  TGI: 14.6 µM
SW-620 colon
  GI50: 0.388 µM
  TGI: > 100 µM
T-47D breast
  GI50: 0.816 µM
  TGI: > 100 µM
TK-10 renal
  GI50: 0.833 µM
  TGI: > 100 µM
U251 CNS
  GI50: 0.648 µM
  TGI: > 100 µM
UACC-257 melanoma
  GI50: 0.486 µM
  TGI: > 100 µM
UACC-62 melanoma
  GI50: 0.329 µM
  TGI: > 100 µM
UO-31 renal
  GI50: 0.998 µM
  TGI: > 100 µM
